# Paper PMC10687119, “Quaternary Ammonium Salts of Cationic Lipopeptides with Lysine Residues — Synthesis, Antimicrobial, Hemolytic and Cytotoxic Activities” (Probiotics and Antimicrobial Proteins, 2023)
# Key:
# [1] = tested on: human keratinocytes; design: method as in PMID 33003569; settings: toxicity towards human keratinocytes ref 3; in µg/mL; cited from earlier work
# [2] = tested on: S. aureus; design: method as in PMID 20374251; settings: against S. aureus ref 5; cited from earlier work
# [3] = cited from earlier work
# [4] = tested on: P. aeruginosa ATCC 9027; format: cell-based, Pseudomonas aeruginosa; settings: ATCC 9027, 18 h
# Procedure: (§1) The Acinetobacter baumannii ATCC BAA-1605, Enterococcus faecium ATCC 700221, Klebsiella aerogenes ATCC 13048, Klebsiella pneumoniae ATCC 700603, Pseudomonas aeruginosa ATCC 9027, Staphylococcus aureus ATCC 33591, Candida glabrata ATCC 15126 strains were acquired from the American Type Culture Collection (ATCC, Manassas, USA). All the strains were stored at −80 °C in Roti-Store cryo vials (Carl Roth GmbH, Germany) and before the tests were transferred into fresh Mueller–Hinton broth (MHB, Becton Dickinson, Poland) for bacteria or RPMI-1640 (Sigma-Aldrich, Germany) for fungi and incubated for 24 h at 37 °C. Then, the cultures were cultured on the Mueller–Hinton agar (BioMaxima, Poland) or Sabouraud dextrose agar (SDA, BioMaxima) plates, respectively, and incubated as just mentioned. For microbiological assays, a minimum of three to five well-isolated colonies of the same morphological type were carefully picked from the agar cultures. These colonies were transferred with sterile loop into fresh microbiological medium and incubated with shaking (100 rpm) at 37 °C until they reached logarithmic phase of growth. Cell densities for all assays were adjusted through spectrophotometric measurements (Multiskan GO Microplate Spectrophotometer, Thermo Fisher Scientific, Finland) at 600 and 530 nm for bacteria and fungi, respectively.
# (§2) The MICs were determined by broth microdilution method according to the Clinical and Laboratory Standard Institute guidelines. For this purpose, initial inoculums of bacteria (5 × 10^5 CFU/mL) in MHB and yeasts (2 × 10^3 CFU/mL) in RPMI-1640 with 2% D-glucose were exposed to the ranging concentration of lipopeptides (1–512 μg/mL) and incubated at 37 °C for 18 h and 24 h, respectively. The experiments were conducted on 96-well microtiter polystyrene plates (Kartell, Italy). The growth was assessed visually after incubation and the MIC was assumed as the lowest peptide concentration at which a noticeable growth of microorganisms was inhibited. Benzalkonium chloride (Sigma-Aldrich, Germany) was used as reference compound. All experiments were conducted in triplicate.
# [5] = tested on: K. pneumoniae ATCC 700603; format: cell-based, Klebsiella pneumoniae; settings: ATCC 700603, 18 h
# Procedure: as §1, §2
# [6] = tested on: human keratinocyte cell line (HaCaT); format: cell-based; settings: 24 h
# Procedure: The immortalized human keratinocyte cell line (HaCaT), obtained from CLS (Cell Line Service, Germany) was cultured in DMEM-high glucose (Dulbecco’s Modified Eagle Medium) supplemented with 10% fetal bovine serum, 2 mM L-glutamine, 100 U/mL penicillin and 100 μg/mL streptomycin (Sigma-Aldrich; Merck KGaA) at 37 °C in a humidified atmosphere with 5% CO2. Cells were trypsinized, and the medium was renewed 2–3 times per week. The cytotoxicity of compounds was assessed by colorimetric CellTilter 96® Aqueous One Solution Cell Proliferation Assay (Promega, USA), containing a tetrazolium compound according to the manufacturer’s instructions. In brief, 7 × 10^3 HaCaT cells per well were plated on 96-well plates and incubated per night to adhere to the cultured dishes. After that time, different concentrations of the tested compounds ranging from 512 to 1 μg/mL were applied to the wells. Every compound was medium-soluble at 37 °C; thus, the non-treated cells were negative control. Serial dilutions of the tested compounds were always prepared before use. Cells were incubated with drugs for 24 h, and then, 20 μL of the CellTiter 96®AqueousOne Solution Reagent was added to each well containing treated cells in 100 µl of culture medium. After 4 h of incubation at 37 °C, the absorbance at 490 nm was recorded using a microplate reader (Epoch, BioTek Instruments, USA). The quantity of formazan product as measured by the amount of 490 nm absorbance is directly proportional to the number of living cells in culture. Benzalkonium chloride (Sigma-Aldrich, Germany) was used as reference compound. At least three independent experiments with two replicates were conducted for each concentration of a compound, and the IC50 values were calculated using GraphPad Prism 8 software.
# [7] = tested on: C. glabrata ATCC 15126; format: cell-based, Candida glabrata; settings: ATCC 15126, 24 h
# Procedure: as §1, §2
# [8] = tested on: K. aerogenes ATCC 13048; format: cell-based, Klebsiella aerogenes; settings: ATCC 13048, 18 h
# Procedure: as §1, §2
# [9] = tested on: E. faecium ATCC 700221; format: cell-based, Enterococcus faecium; settings: ATCC 700221, 18 h
# Procedure: as §1, §2
# [10] = tested on: A. baumannii ATCC BAA 1605; format: cell-based, Acinetobacter baumannii; settings: ATCC BAA 1605, 18 h
# Procedure: as §1, §2
# [11] = tested on: human red blood cells (RBCs); format: cell-based; settings: red cells of human
# Procedure: The hemolysis assay was conducted using a procedure described previously. For this purpose, human red blood cells (RBCs) isolated from K2EDTA Single Donor Human Whole blood (Innovative Research, Inc, MI, USA) were rinsed with Phosphate-buffer saline (PBS, pH 7.4±0.05, composition - KCl 2.7 mM, NaCl 140 mM, phosphate 10mM; AppliChem GmbH, Germany) by centrifugation for 10 min at 800 × g. This process was repeated 3 times and the RBCs were resuspended in PBS. Then, the stock solution of RBCs was added to the serial dilution of lipopeptides on 96-well polystyrene plates to reach a final volume of 100 μL with a 4% concentration of erythrocytes (v/v) and a concentration range of 1-512 μg/mL of tested compounds. The control wells for 0% and 100% hemolysis consisted of RBCs suspended in PBS and 1% of Triton X-100 (Sigma-Aldrich, Germany), respectively. Benzalkonium chloride (Sigma-Aldrich, Germany) was used as reference compound. Subsequently, the plates were incubated for 60 min at 37 °C and then centrifuged at 800 × g for 10 min at 4 °C (Sorvall ST […] Centrifuge, Thermo Scientific). The supernatant was carefully […] to new microtiter plates. The release of hemoglobin was monitored absorbance measurements at 540 nm (MultiskanTM GO Microplate Spectrophotometer, Thermo Scientific). All experiments were conducted in triplicate. HC50 was calculated using an ic50.tk tool.
# [12] = tested on: S. aureus ATCC 33591; format: cell-based, Staphylococcus aureus; settings: ATCC 33591, 18 h
# Procedure: as §1, §2
compound,measurement,setting,value
C16-RRKK-NH2 [Peptide C16-RRKK-NH2],IC50,[1],8.1 ± 1.1
C12-Orn-Orn-Trp-Trp-NH2,MIC,[2],0.95 to 1.95 µg/mL
"C[N+](C)(C)CC(=O)O [betaine, N,N,N-trimethylglycine]",solubility in water,[3],611 mg/mL
"CCCCCCCCCCCCCCCCCC(=O)N[C@@H](CCCC[N+](C)(C)C)C(=O)N[C@@H](CCCC[N+](C)(C)C)C(=O)N[C@@H](CCCC[N+](C)(C)C)C(N)=O [Peptide 3Sq, C18-K(Me3)^+K(Me3)^+K(Me3)^+-NH2]",MIC,[4],512 µg/mL
same,MIC,[5],256 µg/mL
same,IC50,[6],474.64 ± 29.06 µg/mL
same,MIC,[7],128 µg/mL
same,MIC,[8],64 µg/mL
same,MIC,[9],16 µg/mL
same,MIC,[10],128 µg/mL
same,HC50,[11],385.50 ± 71.51 µg/mL
same,MIC,[12],64 µg/mL
C16-CRRKKC-NH2,IC50,[1],21.3 ± 8.2
